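Each compound was tested at five concentrations against cells in 96-well plates for 48 hours. GI50 is the concentration that inhibits growth by half.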 The source made the active and inactive calls. Cut-off read from the data, not from the text of the source: active = GI50 up to about 1.1 µM and inactive = higher.
Assays:
Assay in all cases: DTP human tumour cell line panel, 48 h
A549 = tested on: A549
U-251 = tested on: U-251
MOLT-4 = tested on: MOLT-4
SN12C = tested on: SN12C
OVCAR-4 = tested on: OVCAR-4
HL-60 = tested on: HL-60
RXF 393 = tested on: RXF 393
786-0 = tested on: 786-0
HCT-116 = tested on: HCT-116
NCI-H460 = tested on: NCI-H460
EKVX = tested on: EKVX
IGROV-1 = tested on: IGROV-1
OVCAR-3 = tested on: OVCAR-3
M14 = tested on: M14
HCC 2998 = tested on: HCC 2998
K562 = tested on: K562
SNB-75 = tested on: SNB-75
A498 = tested on: A498

Measured: GI50

COc1ccc2c(c1)[n+]([O-])c(C(=O)CC(=O)C(=O)Nc1cccc(C)c1C)c(C)[n+]2[O-]
inactive: A549 > 100 µM | U-251 > 100 µM | MOLT-4 > 100 µM | SN12C > 100 µM | OVCAR-4 > 100 µM | HL-60 > 100 µM | RXF 393 > 100 µM | 786-0 > 100 µM | HCT-116 > 100 µM | NCI-H460 > 100 µM | EKVX > 100 µM | IGROV-1 > 100 µM | OVCAR-3 > 100 µM | M14 > 100 µM | HCC 2998 > 100 µM | K562 > 100 µM

CCOC(=O)/C(=C\c1ccc(OCc2ccccc2)c(OC)c1)C(=O)c1ccccc1
inactive: A549 > 10 µM | U-251 17.3 µM | MOLT-4 18.3 µM | SN12C 23 µM | OVCAR-4 36 µM | HL-60 20.1 µM | 786-0 20 µM | HCT-116 17.5 µM | EKVX 27.4 µM | IGROV-1 29.7 µM | OVCAR-3 22 µM | M14 15 µM | HCC 2998 36.1 µM | K562 19.9 µM

COc1ccc(Cn2c(C)nc3c2C(=O)c2ccccc2C3=O)cc1
inactive: A549 8.61 µM | U-251 6.32 µM | SNB-75 11.2 µM | MOLT-4 2.59 µM | SN12C 13.9 µM | OVCAR-4 15.5 µM | HL-60 4.17 µM | RXF 393 14 µM | 786-0 5.4 µM | HCT-116 3.74 µM | NCI-H460 2.38 µM | EKVX 13.8 µM | IGROV-1 9.86 µM | OVCAR-3 9.84 µM | M14 11.6 µM | HCC 2998 18.8 µM | K562 3.2 µM

O=C1OC(Cc2ccccc2)(N2CCCC2=O)C1c1ccccc1 (stereo not given)
inactive: A549 95.7 µM | U-251 44.7 µM | SNB-75 30.8 µM | MOLT-4 43.6 µM | SN12C 67.5 µM | OVCAR-4 > 100 µM | HL-60 43 µM | 786-0 > 100 µM | HCT-116 53.2 µM | NCI-H460 > 100 µM | EKVX 48.6 µM | A498 4.95 µM | OVCAR-3 > 100 µM | M14 > 100 µM | K562 63.8 µM

Cc1ccc(/C=N\NC2c3cc(Cl)ccc3Nc3nc(O)nc(C)c32)cc1 (stereo not given)
inactive: A549 > 100 µM | U-251 > 100 µM | SNB-75 > 100 µM | MOLT-4 4.92 µM | SN12C 65.3 µM | HL-60 43.3 µM | RXF 393 > 100 µM | 786-0 > 100 µM | HCT-116 46.8 µM | NCI-H460 > 100 µM | EKVX > 100 µM | IGROV-1 84.3 µM | OVCAR-3 > 100 µM | M14 57.1 µM | HCC 2998 95.7 µM | K562 56.5 µM

COc1ccc(CCNCc2cccc(OC)c2OC)cc1OC
inactive: A549 > 100 µM | SNB-75 > 100 µM | MOLT-4 > 100 µM | SN12C > 100 µM | OVCAR-4 > 100 µM | HL-60 > 100 µM | RXF 393 > 100 µM | 786-0 > 100 µM | NCI-H460 > 100 µM | EKVX > 100 µM | IGROV-1 > 100 µM | OVCAR-3 > 100 µM | M14 > 100 µM | HCC 2998 > 100 µM | K562 > 100 µM

CC(=O)C(CN(C(C)C)C(C)C)C(c1ccccc1)c1c(O)c2ccccc2oc1=O (stereo not given)
inactive: A549 > 100 µM | U-251 56.2 µM | SNB-75 16.7 µM | MOLT-4 > 100 µM | SN12C > 100 µM | OVCAR-4 > 100 µM | HL-60 > 100 µM | RXF 393 60.1 µM | 786-0 > 100 µM | HCT-116 > 100 µM | NCI-H460 > 100 µM | EKVX > 100 µM | A498 > 100 µM | IGROV-1 > 100 µM | OVCAR-3 > 100 µM | M14 > 100 µM | K562 > 100 µM

Reference: ChEMBL document CHEMBL1201862, “PubChem BioAssay data set” (2004)
